Data reported in patent publication US20140011755A1, “Cardiac Glycosides for Treating Autoimmune Disease” (Department of Veterans Affairs, priority 2010, published 2014).

Tests used:
[1] = Human, 3 × 0.5 mg/kg per diem, oral; Andersson, et al. (1975); cited from earlier work
[2] = system: TNF, IL-6 and IL-1beta; assay: Serum cytokine ELISA in CIA treatment groups; format: in vivo; settings: serum from 3 mice per treatment group, ELISA in triplicate
Description: FIG. 9. Serum cytokine levels are similar between vehicle and cardiac glycoside treatment groups. […] The unpaired student t-test was used to assess significance.

[3] = system: anti-type II collagen antibodies; format: in vivo; settings: sera of 6 mice per prevention group, ANOVA
Protocol: FIG. 10. Cardiac glycosides reduce immunoglobulin levels in CIA mice. ELISAs for anti-type II collagen antibodies were performed on sera derived from 6 representative mice of each prevention group (A, B). Isotype specific antibodies for IgG1 and IgG2a (A) and IgM (B) were utilized. […] Statistical analysis was performed using ANOVA and asterisks indicate points at which the P-values were less than 0.001.
The effects of the different cardiac glycoside treatments on CIA pathology was analyzed by histological scoring. Inflammatory cell infiltrate, synovial hyperplasia, pannus formation and articular cartilage and bone deterioration were evaluated in sectioned paws of treated mice at specific time-points throughout the disease course. Histopathology scores of inflammation, pannus formation and bone and cartilage erosions were conducted by a blinded investigator on toludine blue-stained cross sections of fixed leg joints from representative mice in vehicle and glycoside groups. Pathology scoring for each of the three categories are on a scale of 0-4 with grade 0=normal, 1=mild inflammation, hyperplasia of the synovial lining, cartilage destruction without bone erosion, grades 2 to 4=increasing degrees of inflammatory cell infiltrate, synovial hyperplasia, pannus formation and cartilage and bone destruction. Error bars represent SEM and statistics were performed using the Mann-Whitney test. At the endpoint, mice are bled and serum is collected from representative mice and stored at −80 C until use. To determine anti-collagen II antibody levels and to characterize isotype prevalence, bovine collagen II (Chondrex) was coated O/N at 4 C on an ELISA plate, washed and incubated with 100 uL of 1:10 dilution of each serum sample (in triplicate) for 2 h at RT. Wells were washed and incubated with anti-mouse IgM u-chain specific (Jackson), anti-mouse IgG1, or anti-mouse IgG2a (Southern Biotech) for 1 h at RT. The ELISA was developed and read using BD ELISA development kit. Statistical analysis was performed using the two-tailed ANOVA and asterisks represent P-values less than 0.01.

[4] = system: TNFR; format: cell-based, mice; settings: pre-treatment with 3.3 or 33 nM
Protocol: (§1) Activity was monitored by ^3H-thymidine incorporation as a read-out for proliferation. […] Cell type(s) in the splenocyte population responsive to therapeutic concentrations of cardiac glycoside were determined by identifying the population of cells that responded to a dose-dependent decrease in activity in the presence of stimulant, defined as ligand(s) binding to cognate receptor(s). Activity was analyzed by: ^3H-thymidine or BrdU incorporation to monitor proliferation or by ELISA to monitor cytokine production. Splenic T lymphocytes were isolated by negative selection (MACS, Miltinyi Biotec) and are stimulated with PMA, ConA or through the TCR with anti-CD3/anti-CD28 Dynabeads (Invitrogen) and collagen II (all non-TNFR receptors/pathways). […] Peritoneal and bone marrow-derived macrophages were isolated from CIA mice in the presence of M-CSF growth factor and were stimulated with TNF and CD40 ligand (CD40L). […] Splenic B lymphocytes were isolated by negative selection (MACS, Miltinyi Biotec) and were stimulated with BAFF (BLyS), CD40L or through the BCR with anti-IgM u-chain specific antibodies.

[5] = biological target: T1, CD40 (Mus musculus, UniProt P27512); format: cell-based, mice; settings: pre-treatment with 3.3 or 33 nM
T1 construct: Peritoneal and bone marrow-derived macrophages were isolated from CIA mice; endogenous in cells; host or cells: peritoneal and bone marrow-derived macrophages from CIA mice
T1 sequence (P27512 20-289): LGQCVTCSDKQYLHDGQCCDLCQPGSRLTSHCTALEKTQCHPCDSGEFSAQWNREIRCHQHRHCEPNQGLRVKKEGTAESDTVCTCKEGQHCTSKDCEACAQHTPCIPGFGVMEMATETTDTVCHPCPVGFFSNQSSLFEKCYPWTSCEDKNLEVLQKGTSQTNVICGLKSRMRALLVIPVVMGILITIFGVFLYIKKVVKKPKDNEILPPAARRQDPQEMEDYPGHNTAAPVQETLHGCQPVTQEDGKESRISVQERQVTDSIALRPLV
Protocol: as §1

[6] = system: collagen-induced arthritis (CIA) joints; format: in vivo, DBA1/J mice; settings: cross-sectioned ankle joints, CIA prevention groups
Protocol: FIG. 7. Cardiac glycosides reduce joint pathology in the CIA mouse model for rheumatoid arthritis. Blinded scoring was performed on histologic sections of joints harvested from mice at the end of a CIA prevention study (A-C). Joints derived from three representative mice belonging to each prevention group (A-C) were decalcified, fixed and stained with tolidine blue, followed by scoring by an examiner blinded to treatment status for the severity of synovitis (inflammation), pannus (growth of the synovial lining), and erosions of bone. (D-G) Joints derived from three representative mice belonging to each prevention group were decalcified, fixed, and stained with hematoxylin and eosin. Cross-sectioned ankle joints from vehicle (D), digitoxin (E), ouabain (F) and proscillaridin (G) treated mice are presented. Error bars represent SEM, and asterisks indicate P-values less than 0.05 by Mann-Whitney test.
In treatment studies, mice were randomly enrolled in treatment groups and treatment commenced when the average clinical score was at or above 2. […] Daily dosing commenced upon enrollment at the abovementioned concentrations. […] Double-blinded histopathology scoring was conducted of cross-sectioned joints taken from cardiac glycoside and vehicle recipients. […] The results obtained from these animal studies indicate that cardiac glycosides are effective at reducing the clinical manifestations of disease and reducing joint pathology in mice with collagen arthritis.
The effects of the different cardiac glycoside treatments on CIA pathology was analyzed by histological scoring. Inflammatory cell infiltrate, synovial hyperplasia, pannus formation and articular cartilage and bone deterioration were evaluated in sectioned paws of treated mice at specific time-points throughout the disease course. […] The ELISA was developed and read using BD ELISA development kit. […]

[7] = system: TNF-mediated NFκB activity in HeLa cells; assay: NFκB luciferase reporter assay in TNF-stimulated HeLa cells; format: cell-based; settings: pre-treatment 6 hours with 0-500 nM, 50 ng/mL TNF
Protocol: FIG. 8. […] Values represent mean light units produced. Error bars represent SEM, and statistical significance was determined by unpaired T-test. Single and double asterisks represent P-values of 0.01 or 0.001, respectively. […] Samples were harvested at designated time points and were fractionated into nuclear and cytoplasmic lysates (Pierce). Lysates were quantified using BCA (Pierce), and were equally loaded according to total protein. Membranes were probed for levels of nuclear phospho-p65 (ReIA), phospho-ReIB, and histone (histone served as loading control and fractionation method control) and cytoplasmic degradation of IκBα (beta-tubulin served as loading control and fractionation method control).
HeLa cells were co-transfected with the reporter pNFκB-luc and control vector pTAL (Renilla) for 18 h prior to incubation with 0-500 nM cardiac glycoside for 6 h. Cells are stimulated with 50 ng/mL TNF. […] FIG. 8 B).

[8] = system: collagen-induced arthritis (CIA); format: in vivo, DBA1/J mice
[9] = injectable versus other formulations; cited from earlier work
[10] = system: erectile dysfunction; settings: 20 mg sublingual; cited from earlier work
[11] = daily i.p. from Mean Visual Score of 2, digitoxin 0.3 mg/kg, proscillaridin […], Mann-Whitney

Row | SMILES | Serum conc. [1] [ng/mL] | Serum cytokine levels (TNF, IL-6 and IL-1beta) versus vehicle [2] | anti-type II collagen IgG1 level relative to vehicle [3] | anti-type II collagen IgM level relative to vehicle [3] | TNF-mediated activation of macrophage through TNFR [4] | CD40L-mediated activation of macrophage through CD40 [5] | immune cell infiltrate into the joints (hematoxylin and eosin) [6] | TNF-mediated NFκB activation (luciferase light units) [7] | Mean Paw Thickness, treatment of established arthritis [8, 11] | Mean Visual Score, treatment of established arthritis [8, 11] | development of CIA (Mean Visual Arthritis Score, Mean Paw Thickness), prevention study ([8]; daily i.p. from the day prior to induction, digitoxin 0.3 mg/kg, ouabain 0.03 mg/kg, proscillaridin […]) | average clinical arthritis scores compared to vehicle, prevention study ([8]; first dose one day prior to boost, 0.3 mg/kg digitoxin, 0.03 mg/kg ouabain, […] proscillaridin, 0.35 mg/kg digoxin, […] bufalin, 15 mice per group) | prevention and treatment of collagen-induced arthritis (CIA) ([8]; murine model for rheumatoid arthritis, summary statement) | bioavailability by formulation [9] | safety and efficacy of sublingual administration [10]
1 | C[C@@H]1O[C@@H](O[C@@H]2C=C3CC[C@@H]4[C@H](CC[C@]5(C)[C@@H](c6ccc(=O)oc6)CC[C@]45O)[C@@]3(C)CC2)[C@H](O)[C@H](O)[C@H]1O [Proscillaridin, proscillaridin A] | 0.75 | similar | reduced levels | reduced levels | inhibits | inhibits | decreased amounts of immune cell infiltrate | reduced TNF-mediated NFκB activation in a dose-dependent fashion | statistically significant reductions | statistically significant reductions | prevented the development of CIA | significantly reduced | potently prevent and treat | higher bioavailability with injectable formulations | –
2 | CCCc1nn(C)c2c(=O)[nH]c(-c3cc(S(=O)(=O)N4CCN(C)CC4)ccc3OCC)nc12 [sildenafil] | – | – | – | – | – | – | – | – | – | – | – | – | – | – | safe and effective
